Source: the NIST ThermoML archive (doi:10.1016/j.fluid.2010.11.026)

Conditions: Liquid, Closed cell (Static) method

CCO [ethanol]
Conditions	vapor or sublimation pressure [kPa]
317 K	21.9
325.12 K	32.5
330.28 K	41.3
335.45 K	52
339.58 K	62.3
342.32 K	70
345.79 K	80.9
348.45 K	90.2
351.31 K	101.4

CCCO [propan-1-ol]
Conditions	vapor or sublimation pressure [kPa]
334.53 K	21.9
342.07 K	31.2
349.12 K	42.9
353.96 K	52.7
357.95 K	62.4
361.25 K	71.4
364.3 K	80.7
367.51 K	91.6
370.44 K	102.7

CCCOC(C)=O [propyl ethanoate]
Conditions	vapor or sublimation pressure [kPa]
331.7 K	22.2
340.16 K	31.1
348.06 K	41.8
353.27 K	50.4
359.55 K	62.7
363.29 K	71
367.42 K	81.4
371.07 K	91.5
374.29 K	101.4
